In brackets after ≈: the same amount, converted by molar mass. Read-outs that look alike come from different tables or passages of the source.
Assays:
[1] = Aqueous solubility of Compound A; type: physicochemical; conditions: aqueous buffer
Description: In order to enable safe and effective administration of Compound A, and to elicit the required therapeutic effects, Compound A needs to be solubilized at higher concentration than its aqueous solubility.

[2] = Solubility test in various carriers (Example 1); type: physicochemical; conditions: thermodynamic from solid; for solubility at 2 h: read-out: Solubility after 2 h
Procedure: The solubility of ‘Compound A, H2SO4’ was studied in various media, including: • citrate buffer (pH=2; 50 mM), acetate buffer (pH=4; 50 mM) and phosphate buffer (pH=6-7.4; 67.7 mM); • cyclodextrins of the type sulfobutyl ether β-cyclodextrin (SBE-β-cyclodextrin) or hydroxypropyl β-cyclodextrin (HP-β-cyclodextrin); more precisely, the SBE-β-cyclodextrin tested is Dexsolve™ marketed by Cyclolab, while the HP-β-cyclodextrins tested are Cavitron™ W7HP7 and Cavitron™ W7HP5 marketed by Wacker; Kleptose™ HP and Kleptose™ HPB marketed by Roquette; • surfactants such as polysorbate 80 and Kolliphor™ ELP; • the mixture PEG400/ethanol/0.9% NaCl (40/10/50).
5 g of the cyclodextrin studied (Dexsolve™, Cavitron™ W7HP7, Cavitron™ W7HP5, Kleptose™ HP or Kleptose™ HPB) are weighed into a […] graduated flask. Approximately 15 mL of water are added and the whole obtained is subjected to magnetic stirring. The volume is then made up to 25 mL by the addition of water. The whole is placed under magnetic stirring for 10 minutes.
1 g of the surfactant studied is weighed into a 50 mL graduated flask. The volume is then made up to 50 mL by means of 0.9% NaCl solution. The whole is placed under magnetic stirring for 1 hour.
20 mL of PEG 400, 5 mL of ethanol and 25 mL of NaCl are taken. The whole is placed in a 100 mL Erlenmeyer flask and stirred magnetically for 30 minutes.
Approximately 340 mg of ‘Compound A, H2SO4’ are weighed into a 5 mL tube. 3 mL of the medium containing the carrier to be tested are then added. The whole is then placed under magnetic stirring for 2 hours or 24 hours. The suspension or solution so obtained is passed through a 0.2 μm filter (PVDF membrane—Millipore) before being analysed by HPLC. In addition, the presence of degradation products of Compound A was investigated in the samples stored for 72 hours at ambient temperature.

[3] = Solubility test of Compound A, H2SO4 in a HP-β-cyclodextrin as a function of the pH; type: physicochemical; conditions: for solubility at 24 h: aqueous HP-β-cyclodextrin (Cavitron W7HP5) solution, aqueous with cosolvent or surfactant or cyclodextrin, thermodynamic from solid, read-out: Solubility after 24 h
Procedure: The solubility of ‘Compound A, H2SO4’ was studied in the presence of a HP-β-cyclodextrin as a function of the pH.
10 g of the cyclodextrin studied (Cavitron™ W7HP5) are placed in a 50 mL graduated flask. 40 mL of water are then added. The whole is placed under magnetic stirring. The volume is then made up with water to 50 mL.
Approximately 856.7 mg of ‘Compound A, H2SO4’ are weighed. 30 mL of the medium containing the carrier to be tested, that is to say Cavitron™ W7HP5, are then added. The whole is placed under magnetic stirring for 24 hours. The suspension so obtained is passed through a 0.2 μm filter (PALL—PES membrane—diameter 25 mm) before being analysed by HPLC.
In other tests, the pH of the solution is then modified by means of 0.1 N NaOH solution until values of 4 and 8.8 are reached, before the analysis by HPLC chromatography is carried out.

[4] = PK parameters in RS4;11 grafted female SCID mice; type: in vivo; conditions: for AUCt/Dose / Co / tlast / concentration at 6 h / AUC / half-life / AUC(0-t): one i.v. treatment; for Co / tlast / concentration at 6 h / AUC / half-life: 20% HP-β-cyclodextrin solution; for concentration at 6 h / AUC / half-life / AUC(0-t) / Cmax: female, SCID, mouse, blood; for concentration at 6 h: intravenous, read-out: Clast; for AUC / half-life / AUC(0-t) / Cmax: iv; for half-life: read-out: t1/2, z (converted); for AUC(0-t): administration to the last point
Procedure: RS4;11 cell line, obtained from ATCC, were subcutaneously injected into female SCID mice, provided by Charles River. When tumors reached the appropriate tumor volume, mice were randomized using Easy stat software. […]
In a 100 mL flask, introduce 20 g of Cavitron™ W7HP5 and add around 75 mL of a solution water/0.9% NaCl (70/30, v/v). Stir for 15 minutes at room temperature. Then, make up the solution to a volume of 100 mL by adding the previous solution water/0.9% NaCl, while maintaining magnetic stirring. Weigh the necessary amount of ‘Compound A, H2SO4’ and dissolve it with the previous 20% w/v Cavitron™ W7H5 solution. Heat the whole at 60° C. under vigorous magnetic stirring until solubilisation of the components of the mixture is complete. Measure the pH of the solution obtained. Adjust the pH to 3 by adding drop by drop, either HCl 0.1N or NaOH 0.1N, depending on the concentration of Compound A. Stir the mixture at least for 1 hour. Filtrate the obtained solution with a 0.2 μm-filter.
A 20% w/v Cavitron™ W7H5 solution containing a dose of 4 mg/mL of Compound A was prepared following this procedure. A second solution containing a dose of 1.5 mg/mL of Compound A was also prepared by diluting further the previous solution with the 20% w/v Cavitron™ W7H5 solution.

In the case of `Cc1c(N(C(=O)c2cc(-c3cc(Cl)ccc3C(=O)N3Cc4ccccc4C[C@H]3CN3CCOCC3)n(C)c2C)c2ccc(O)cc2)cc(C#N)n1C` [Compound A, H2SO4, 5-(5-chloro-2-{[(3S)-3-(morpholin-4-ylmethyl)-3,4-dihydroisoquinolin-2(1H)-yl]carbonyl}phenyl)-N-(5-cyano-1,2-dimethyl-1H-pyrrol-3-yl)-N-(4-hydroxyphenyl)-1,2-dimethyl-1H-pyrrole-3-carboxamide], the solubility ([1]; aqueous medium, at pH=2.5) is reported as 1400 µg/mL (≈ 1.95 mM), the solubility at 2 h ([2]; 2% Kolliphor ELP solution, aqueous with cosolvent or surfactant or cyclodextrin, carrier: 2% Kolliphor ELP) is reported as 2080 µg/mL (≈ 2.9 mM) and the solubility at 24 h ([2]; 2% Kolliphor ELP solution, aqueous with cosolvent or surfactant or cyclodextrin, carrier: 2% Kolliphor ELP, read-out: Solubility after 24 h) is reported as 1740 µg/mL (≈ 2.43 mM). For the same compound, the solubility at 2 h ([2]; 2% Polysorbate 80 solution, aqueous with cosolvent or surfactant or cyclodextrin, carrier: 2% Polysorbate 80) was 2300 µg/mL (≈ 3.21 mM), the solubility at 24 h ([2]; 2% Polysorbate 80 solution, aqueous with cosolvent or surfactant or cyclodextrin, carrier: 2% Polysorbate 80, read-out: Solubility after 24 h) was 1960 µg/mL (≈ 2.73 mM) and the solubility at 2 h ([2]; aqueous buffer, carrier: Acetate buffer (pH=4; 50 mM)) was 200 µg/mL (≈ 0.279 mM). For the same compound, the solubility at 24 h ([2]; aqueous buffer, carrier: Acetate buffer (pH=4; 50 mM), read-out: Solubility after 24 h) was 180 µg/mL (≈ 0.251 mM), the solubility at 2 h ([2]; aqueous buffer, carrier: Citrate buffer (pH=2; 50 mM)) was 240 µg/mL (≈ 0.335 mM) and the solubility at 24 h ([2]; aqueous buffer, carrier: Citrate buffer (pH=2; 50 mM), read-out: Solubility after 24 h) was 250 µg/mL (≈ 0.349 mM). For the same compound, the solubility at 2 h ([2]; aqueous buffer, carrier: Phosphate buffer (pH=6-7.4; 67.7 mM)) was 210 µg/mL (≈ 0.293 mM), the solubility at 24 h ([2]; aqueous buffer, carrier: Phosphate buffer (pH=6-7.4; 67.7 mM), read-out: Solubility after 24 h) was 520 µg/mL (≈ 0.725 mM) and the solubility at 2 h ([2]; aqueous with cosolvent or surfactant or cyclodextrin, carrier: Cavitron W7HP5, 20% by weight cyclodextrin solution) was 25200 µg/mL (≈ 35.1 mM). It also gave a solubility at 24 h ([2]; aqueous with cosolvent or surfactant or cyclodextrin, carrier: Cavitron W7HP5, 20% by weight cyclodextrin solution, read-out: Solubility after 24 h) of 30200 µg/mL (≈ 42.1 mM), a solubility at 2 h ([2]; aqueous with cosolvent or surfactant or cyclodextrin, carrier: Cavitron W7HP7, 20% by weight cyclodextrin solution) of 17900 µg/mL (≈ 24.9 mM) and a solubility at 24 h ([2]; aqueous with cosolvent or surfactant or cyclodextrin, carrier: Cavitron W7HP7, 20% by weight cyclodextrin solution, read-out: Solubility after 24 h) of 21200 µg/mL (≈ 29.5 mM). It also gave a solubility at 2 h ([2]; aqueous with cosolvent or surfactant or cyclodextrin, carrier: Dexsolve, 20% by weight cyclodextrin solution) of 23400 µg/mL (≈ 32.7 mM), a solubility at 24 h ([2]; aqueous with cosolvent or surfactant or cyclodextrin, carrier: Dexsolve, 20% by weight cyclodextrin solution, read-out: Solubility after 24 h) of 23200 µg/mL (≈ 32.3 mM) and a solubility at 24 h ([2]; aqueous with cosolvent or surfactant or cyclodextrin, carrier: Kleptose HP, 20% by weight cyclodextrin solution, read-out: Solubility after 24 h) of 25000 to 26000 µg/mL (≈ 34.9 to 36.2 mM). For the same compound, the solubility at 24 h ([2]; aqueous with cosolvent or surfactant or cyclodextrin, carrier: Kleptose HPB, 20% by weight cyclodextrin solution, read-out: Solubility after 24 h) was 30000 to 31000 µg/mL (≈ 41.8 to 43.2 mM), the solubility at 2 h ([2]; aqueous with cosolvent or surfactant or cyclodextrin, carrier: PEG400/EtOH/0.9% NaCl (40/10/50)) was 10300 µg/mL (≈ 14.4 mM) and the solubility at 24 h ([2]; aqueous with cosolvent or surfactant or cyclodextrin, carrier: PEG400/EtOH/0.9% NaCl (40/10/50), read-out: Solubility after 24 h) was 10800 µg/mL (≈ 15 mM). For the same compound, the solubility at 2 h ([2]; organic solvent or mixture, carrier: Absolute ethanol) was 1060 µg/mL (≈ 1.48 mM), the solubility at 24 h ([2]; organic solvent or mixture, carrier: Absolute ethanol, read-out: Solubility after 24 h) was 1130 µg/mL (≈ 1.58 mM) and the solubility at 2 h ([2]; organic solvent or mixture, carrier: PEG 400) was 11700 µg/mL (≈ 16.3 mM). It also gave a solubility at 24 h ([2]; organic solvent or mixture, carrier: PEG 400, read-out: Solubility after 24 h) of 11200 µg/mL (≈ 15.6 mM), a solubility at 2 h ([2]; carrier: Water) of 2870 µg/mL (≈ 4 mM) and a solubility at 24 h ([2]; carrier: Water, read-out: Solubility after 24 h) of 1560 µg/mL (≈ 2.17 mM). The “pH from which a precipitate is visually observed” value ([3]; Cavitron W7HP5 200 mg/mL, pH raised with 0.1 N NaOH) was 3.2, the solubility at 24 h ([3]; Cavitron W7HP5 200 mg/mL + 0.1N NaOH, pH 4.01) was 17100 µg/mL and the solubility at 24 h ([3]; Cavitron W7HP5 200 mg/mL + 0.1N NaOH, pH 8.8) was 990 µg/mL. For the same compound, the solubility at 24 h ([3]; Cavitron W7HP5 200 mg/mL, pH 1.86 (without adjustment)) was 21600 µg/mL (≈ 30.1 mM), the AUCt/Dose ([4]; 15 mg/kg) was 1360 ng·h/mL per mg/kg and the Co ([4]; 15 mg/kg) was 14692 ng/mL. The tlast ([4]; 15 mg/kg) was 6 h, the AUCt/Dose ([4]; 40 mg/kg) was 1140 ng·h/mL per mg/kg and the Co ([4]; 40 mg/kg) was 23290 ng/mL. For the same compound, the tlast ([4]; 40 mg/kg) was 6 h, the concentration at 6 h ([4]; 15 mg/kg) was 58.4 ng/mL and the concentration at 6 h ([4]; 40 mg/kg) was 457 ng/mL. It also gave an AUC ([4]; 15 mg/kg) of 20500 ng·h/mL, a half-life ([4]; 15 mg/kg) of 45.6 min and an AUC ([4]; 40 mg/kg) of 46500 ng·h/mL. It also gave a half-life ([4]; 40 mg/kg) of 66 min, an AUC(0-t) ([4]; 15 mg/kg) of 20400 ng·h/mL and an AUC(0-t) ([4]; 40 mg/kg) of 45800 ng·h/mL.
Compound `Cc1c(N(C(=O)c2cc(-c3cc(Cl)ccc3C(=O)N3Cc4ccccc4C[C@H]3CN3CCOCC3)n(C)c2C)c2ccc(O)cc2)cc(C#N)n1C` [Compound A, 5-(5-chloro-2-{[(3S)-3-(morpholin-4-ylmethyl)-3,4-dihydroisoquinolin-2(1H)-yl]carbonyl}phenyl)-N-(5-cyano-1,2-dimethyl-1H-pyrrol-3-yl)-N-(4-hydroxyphenyl)-1,2-dimethyl-1H-pyrrole-3-carboxamide] has a solubility ([1]; aqueous media, free base, across all pHs) of under 10 µg/mL, a solubility at 24 h ([2]; aqueous with cosolvent or surfactant or cyclodextrin, in the carriers permitting substantial solubilisation (cyclodextrins, PEG400, PEG400/EtOH/0.9% NaCl), read-out: solubilities after 24 hours' stirring) of 10000 to 30000 µg/mL (≈ 13.9 to 41.8 mM) and an exposure ([4]; 15 mg/kg i.v.) of 20463 ng·h/mL. For the same compound, the exposure ([4]; 40 mg/kg i.v.) was 46509 ng·h/mL, the Cmax ([4]; 15 mg/kg i.v.) was 14700 ng/mL and the Cmax ([4]; 40 mg/kg i.v.) was 23300 ng/mL.

Source: US20210353633A1, “CYCLODEXTRIN-BASED FORMULATION OF A BCL-2 INHIBITOR” (LES LABORATOIRES SERVIER, priority 2018, published 2021)
